Test results as given in US7521463B2, “Immunomodulatory compounds” (University of Maryland, Baltimore, priority 2000, dated 2009).
“Also recorded” adds a separate entry of the source.

How the values were obtained:
[1] = system: OKT-3 activated Jurkat cells; assay: Jurkat cell activation-dependent phosphorylation (OKT-3, anti-phosphotyrosine western blot); assay type: cell-based; details: for effect on tyrosine phosphorylation of Jurkat cellular proteins, dose response: OKT-3, 0.1, 1, 10 and 100 μM; for effect on cellular tyrosine phosphorylation stimulated by OKT-3: compound 100 μM, 5 min at 37° C.
Method: Phosphorylation in Jurkat cells activated by the monoclonal antibody, OKT-3, is correlated with T-cell activation.
A. Compounds are tested for their effect on OKT-3 activated Jurkat cells. OKT-3 is a monoclonal antibody against CD3-ε chain. Treatment of Jurkat cells with OKT-3 antibody for 5 min at 37° C. activates Jurkat cells and induces tyrosine phosphorylation of several cellular proteins. […] Experiments are carried out to determine if compounds of the invention, or known compounds which can serve as standards, affect cellular tyrosine phosphorylation stimulated by OKT-3 in Jurkat cells.
The assay is performed as follows: Jurkat cells (1×10^6 cells) in RPMI 1640 supplemented with 10% fetal bovine serum (FBS) are treated with OKT-3 antibody (0.2 μg) and compounds (100 μM) for 5 min at 37° C. Cultures are immediately placed on ice after the incubation period, washed 3 times with cold PBS and lysed in 20 μl of SDS-sample buffer. Samples are briefly sonicated and boiled for 5 min and applied to SDS-PAGE (12% gel). After SDS-PAGE, proteins are blotted onto Immobilon P membrane (Millipore) for western blot analysis. Membranes are blocked overnight with 5% dried milk in TBST (Tris buffered saline containing 1% triton X-100). After washing, blots are incubated with monoclonal anti-phosphotyrosine antibody for 1 h in TBST followed by 1 hr incubation with horseradish peroxidase (HRP)-conjugated goat anti-mouse IgG. Blots are developed using enhanced chemiluminescence (ECL, Pierce).
The assay is performed as follows: Western blot analyses using anti-phosphotyrosine antibody are performed. Compounds (e.g., inventive compounds I′, II′ and III′) are added at concentrations of 0.1, 1, 10 and 100 μM. Cells are cultured as above.

Jurkat cells = assay: Effect on Jurkat cell viability / growth; assay type: cell-based; details: 10 μM
Method: Compounds can be tested to determine whether they are cytotoxic or cytostatic. To test whether a compound which inhibits OKT-3-mediated stimulation of tyrosine phosphorylation has a cytotoxic effect on Jukat cells, its effect on the growth of Jurkat cells is tested.

p56^lck = p56^lck (Homo sapiens, UniProt P06239); assay: p56^lck kinase activity (general statement); assay type: biochemical
Sequence of p56^lck (P06239 whole entry): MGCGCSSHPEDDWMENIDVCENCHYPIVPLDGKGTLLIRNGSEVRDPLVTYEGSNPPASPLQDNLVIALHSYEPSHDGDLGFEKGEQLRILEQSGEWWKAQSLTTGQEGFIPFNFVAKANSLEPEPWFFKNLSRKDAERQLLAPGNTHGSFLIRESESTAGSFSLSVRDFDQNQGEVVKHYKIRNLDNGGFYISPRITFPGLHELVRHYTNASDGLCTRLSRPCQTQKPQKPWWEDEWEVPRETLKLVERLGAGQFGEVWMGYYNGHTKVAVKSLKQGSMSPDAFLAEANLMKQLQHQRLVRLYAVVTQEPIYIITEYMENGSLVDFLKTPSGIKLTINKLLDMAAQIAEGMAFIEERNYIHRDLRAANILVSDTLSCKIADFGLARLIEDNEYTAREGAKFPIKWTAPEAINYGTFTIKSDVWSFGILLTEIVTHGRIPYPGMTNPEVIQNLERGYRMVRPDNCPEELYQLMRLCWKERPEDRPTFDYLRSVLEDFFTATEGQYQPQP

[2] = system: IL-2 production in Jurkat cells; assay: Inhibition of IL-2 production in OKT-3 treated Jurkat cells (RIA); assay type: cell-based, human
Method: Interleukin 2 (IL-2) is an autocrine growth factor for T cells, the production of which requires T cell antigen receptor and co-receptor generated activation signals in normal T cells. The production of IL-2 is a hallmark of T cell activation signaling, leading to the clonal expansion of antigen-specific T cell clones. In Jurkat cells, treatment of cells with OKT-3 leads to the production of IL-2. […] For example, about 50% inhibition of IL-2 production is observed when cells are treated with 10 μM compound III′ at the time of OKT-3 treatment. […] Unlike the complete inhibition of OKT-3 induced tyrosine phosphorylation, the inhibition of IL-2 production by compound III′ is partial.
The assay is performed as follows: Jurkat cells (1×10^6 cells) are treated with OKT-3 antibody (0.2 μg) in the presence or absence of compounds (e.g., Compound III′) (0.1, 1 and 10 μM) for 24 h in RPMI 1640+10% FBS. At the end of the incubation period, culture media are harvested and assayed for human IL-2 by RIA. Cells treated with OKT-3 only and PMA+Ionomycin serves as a positive control. Untreated cells serve as a negative control. IL-2 production is not detected in untreated cells. Cells treated with 10 μM of Compound III′ are shown to inhibit IL-2 production by 44%. The standard deviation is 0.23 pg/ml.

effect on p56^lck kinase activity (p56^lck) | SMILES | effect on tyrosine phosphorylation at the lowest concentration ([1]; OKT-3, 0.1 μM) | effect on tyrosine phosphorylation of Jurkat cellular proteins, dose response [1] | effect on cellular tyrosine phosphorylation stimulated by OKT-3 [1] | cytotoxic effect on Jurkat cells (Jurkat cells) | effect on the growth of Jurkat cells (Jurkat cells) | time after addition of compound at which Jurkat cells resume normal rate of growth (Jurkat cells) [h] | inhibition at 10 µM ([2]; Homo sapiens, Jurkat, 24 h, 10 μM, at the time of OKT-3 treatment) [%] | effect on IL-2 production at lower concentrations ([2]; lower concentrations (0.1, 1 μM), OKT-3, 24 h)
inhibits p56^lck kinase activity | O=C(Sc1ccccn1)c1ccc(Oc2ccc(Cl)cc2Cl)c([N+](=O)[O-])c1 [Compound III′] | inhibits tyrosine phosphorylation | completely inhibits tyrosine phosphorylation of cellular proteins | inhibitory activity | no cytotoxic effect is observed | some cytostatic effect | 24 | ~50 | no observable effect
activates p56^lck kinase activity | CC(=O)OCc1cccc2cccc(Sc3ccccc3C(=O)O)c12 [Compound I′] | – | significantly stimulate tyrosine phosphorylation of Jurkat cellular proteins in a dose-dependent manner; also recorded: dose-dependent stimulation of tyrosine phosphorylation | stimulatory activity | – | – | – | – | –
